Values quoted from earlier work, collected in patent publication US20070098710A1, “Anxiolytic composition comprising essential oil derived from plants as active ingredients, anxiolytic comprising thereof, and a producing method thereof” (NATURE TECHNOLOGY, INC., priority 2004, published 2007).

Key:
male ICR mice = conditions: mouse, administered previously

## CC1CCC(C(C)C)C(O)C1 (stereo not drawn) [l-menthol, 5-methyl 2-(1-methylethyl)cyclohexanol]
ethanol
  solubility in ethanol: soluble in ethanol
water
  solubility in water: insoluble in water

## CN1C(=O)CN=C(c2ccccc2)c2cc(Cl)ccc21 [diazepam]
Male ICR mice
  change of the emotionality (inhibition of looking into hole) by restraint stress: improved
